Values after ≈ are worked out from the molar mass of the structure shown.

Consider 3 molecules from patent US11129820B2, “Ferroportin-inhibitor salts” (Vifor (International) AG, priority 2017, dated 2021).

Data set [1] relates to beta2-microglobulin deficient (b2m−/−) mice. As to the kind of experiment: Correction of hyperferremia in beta2-microglobulin deficient mice. Type of data set: in vivo, mouse. Conditions: for Serum Iron Reduction (%): 60 mg/kg oral, 3 hours (##). As for the experimental part: Female and male homozygous b2m−/− mice are supplied from Jackson Laboratories (B6.129P2-B2mtm1Unc/J, Stock Number: 002087) at age of 6 to 7 weeks and fed standard diet (Harlan Provimi Kliba 3436) ad libitum. Age and gender matched WT C57BL/6 mice are supplied by Charles River. To study the acute effects of ferroportin (Fpn) inhibitors in iron overload b2m−/− mice are treated with compounds or the corresponding amount of vehicle at a volume of 10 ml/kg body weight. Fpn inhibitor compounds are formulated in 0.5% methylcellulose/water or 20% cremophor EL/water and dosed p.o. in mice at 50 mg/kg body weight. WT controls received only vehicle. Three hours later, mice are pre-terminally anesthetized in isoflurane chambers and blood is collected by retro-orbital bleeding. Mice are sacrificed by cervical dislocation and spleens, livers and duodena are harvested and used for biomarker analysis. All experiments are performed in compliance with license approved by the responsible veterinarian authorities. Serum is isolated by centrifugation of blood into gel-containing microtainers (BD Biosciences) and serum iron is determined by the MULTIGENT Iron assay (Abbott Diagnostics, Cat. 6K95). Four to nine mice per group are used and one-way ANOVA with Bonferroni's multiple comparison test is applied to analyze the statistical differences between the experimental groups.
Blood is collected 1 (#) or 3 (##) hours after oral administration of the indicated doses of Fpn inhibitors to beta2-microglobulin deficient mice and serum iron concentrations are measured. Relative reduction (%) of serum iron levels are shown, which were calculated by subtracting the average of serum iron values of animals dosed with the Fpn inhibitor from that of vehicle-treated animals. The difference in average serum iron values between vehicle and compound treated groups was then divided by the average of serum iron of the vehicle control group and listed as percentage. Values are listed separately for female (♀) and male (♂) animals, because a marked sex-dependent difference in efficacy was noted. Statistically significant (2-way ANOVA with Bonferroni post test) differences observed between compound-treated and vehicle-treated groups are indicated (*** p<0.001; ** p<0.01, p<0.05).

The subject of the next data set is Hbb th3/+ mice. As to the kind of experiment: Mouse model of β-thalassemia intermedia (Hbb th3/+ mice). The data set is classed as in vivo. The settings on record: for Decrease in RDW by 20/60 mg/kg compound / Decrease in serum iron by 20/60 mg/kg compound: % change to vehicle; for Correction of anemia at day 20-48 by 20/60 mg/kg: hemoglobin difference to vehicle; for Decrease in serum iron by 20/60 mg/kg compound: dosed for 3 h. The procedure:
The efficacy of Fpn inhibitors is investigated using a mouse model of transfusion-independent β-thalassemia. Mice with heterozygous deletion of β 1 and β 2 globin genes (called Hbb th3/+ mice) develop transfusion-independent anemia, ineffective erythropoiesis, splenomegaly and secondary iron overload in spleen, liver and kidneys. […] Hbb th3/+ mice are dosed twice daily with either compound at 20 or 60 mg/kg or with methylcellulose (10 ml/kg, Sigma, Cat. 274429) as a vehicle. Between both doses mice have access to drinking water supplemented with 1 mM ^58Fe(II)-sulfate (Vifor Pharma, Batch No. ROR 3096) and 10 mM ascorbic acid (Sigma, Cat. 795437) for 6 h. The concentration of ^58Fe(II)-Sulfate supplied in the drinking water is adjusted to substitute for intake of standard rodent diet with iron content of 250 ppm. Water without ^58Fe(II)-Sulfate and ascorbic acid is provided during the remaining 18 h. Dosing of Fpn inhibitors or vehicle followed by exposure to iron-containing water is repeated for 20 to 46 days in individual experiments.
Additional hematologic parameters are measured in terminal blood using automated blood cell analyzer.
The inefficient erythropoiesis of Hbb th3/+ mice causes excessive proliferation of erythroid precursors in spleen, leading to splenomegaly.
Elevated erythropoietin levels in Hbb th3/+ mice induce overexpression of erythroferrone, an erythroid regulator hormone known to suppress hepcidin (Kautz L. et al, Nat. Genet., 2014). […] Erythroferrone is produced by erythrocyte precursors proliferating massively in spleens of Hbb th3/+ mice as a consequence of extramedullar erythropoiesis.
Increased iron demand due to inefficient erythropoiesis and chronically low hepcidin levels in patients with thalassemia causes organ iron loading and associated morbidities, such as hepatocellular carcinoma and heart failure (Rivella S. Haematologica, 2015). Hbb th3/+ mice absorb excessive amounts of iron as a consequence of inadequately low hepcidin levels relative to the high iron content in liver, spleen and kidney and increased ferroportin expression in duodenum (Gardenghi S., Blood, 2007).
Additionally, reactive oxygen species (ROS) are detected in bone marrow cells using a fluorescent indicator, CM-H2DCFDA (Thermo Fisher Scientific, Cat. C6827).
Data are expressed as difference to the vehicle control group for hemoglobin and as % change to the vehicle control group for all other parameter shown

The nature of data set [2]: Approximate solubility of the starting compound in solvents and solvent mixtures. Type of data set: physicochemical. Conditions: thermodynamic from solid. The procedure: Approximate solubilities were determined by incremental addition of solvent to about 10 mg the compound. […] Due to the experimental error inherent in this method, the solubility values are intended to be regarded as rough estimates and are to be used solely for the design of crystallization experiments.
Approximate solubilities were determined by incremental addition of solvent to about 10 mg of the compound. […] Due to the experimental error inherent in this method, the solubility values were regarded as rough estimates and were only used for the design of crystallization experiments.
The approximate solubility of SP236-FB-P1 was determined in a number of different solvents and solvent mixtures to help guide the salt/co-crystal experiments.

For `O=C(NCc1ncccc1F)c1csc(CCNCCc2nc3ccccc3[nH]2)n1` [Example Compound No. 94], the “Correction of elevated serum iron, in words” value in data set [1] (b2m−/− mice, 50 mg/kg p.o., 3 h) was “corrected the elevated serum iron to the levels observed in WT controls”. Also, the “Serum Iron Reduction (%)” value in data set [1] (female ♀) was found to be 47%; in data set [1] (male ♂) it was 67%.

Take `O=C(NCc1ncccc1F)c1coc(CCNCCc2nc3ccccc3[nH]2)n1` [Example Compound No. 127]: the “Decrease in RDW by 20/60 mg/kg compound” value in the data set with Hbb th3/+ mice (20 mg/kg twice daily for 20-46 days) worked out at 19%; with Hbb th3/+ mice (60 mg/kg twice daily for 20-46 days), 25%. Besides, the “Correction of anemia at day 20-48 by 20/60 mg/kg” value with Hbb th3/+ mice (20 mg/kg twice daily) is on record as 12 g/L; in the data set with Hbb th3/+ mice (60 mg/kg twice daily), 20 g/L. Besides, the entries for the “Decrease in serum iron by 20/60 mg/kg compound” value in the data set on Hbb th3/+ mice (20 mg/kg) and in the data set with Hbb th3/+ mice (60 mg/kg) were 68% and 81%, respectively.

For `O=C(NCc1ncccc1F)c1coc(CCNCCc2nc3ccccc3[nH]2)n1` [SP236-FB-P1], the solubility (in general, how much of the substance goes into solution per volume) was 39 to 47 mg/mL (≈ 95.5 to 115 mM) in data set [2] (aqueous with cosolvent or surfactant or cyclodextrin, 2-propanol-water 1:3); above 100 mg/mL in data set [2] (aqueous with cosolvent or surfactant or cyclodextrin, Methanol-water 1:1); 80 to 120 mg/mL (≈ 196 to 294 mM) in data set [2] (organic solvent or mixture, 2-Propanol); above 200 mg/mL in data set [2] (organic solvent or mixture, Acetonitrile); above 100 mg/mL in data set [2] (organic solvent or mixture, DMSO); above 100 mg/mL in data set [2] (organic solvent or mixture, Dioxane). For the same molecule, the solubility in data set [2] (organic solvent or mixture, Ethanol) was above 100 mg/mL; in data set [2] (organic solvent or mixture, Ethyl acetate), above 100 mg/mL; in data set [2] (organic solvent or mixture, Ethyl acetate-cyclohexane 3:1) it was 5 to 7 mg/mL (≈ 12.2 to 17.1 mM); in data set [2] (organic solvent or mixture, Heptane) it was below 1 mg/mL; in data set [2] (organic solvent or mixture, Methanol), above 200 mg/mL; in data set [2] (organic solvent or mixture, THF), above 200 mg/mL. The solubility is above 200 mg/mL in data set [2] (organic solvent or mixture, THF-heptane 3:1) and around 15 mg/mL (≈ 36.7 mM) in data set [2] (Water).
